Results published in patent publication US20250019703A1, “PHARMACEUTICAL COMPOSITION FOR PREVENTION OR TREATMENT OF BLOOD CANCER COMPRISING SURF4 INHIBITOR” (PUSAN NATIONAL UNIVERSITY INDUSTRY-UNIVERSITY COOPERATION …, priority 2021, published 2025).

How the values were obtained:
[1] = system: STING in myeloid leukemia cells; assay: Apoptosis and pTBK1 expression after cGAMP treatment; type: cell-based; details: cells treated with cGAMP; FIG. 15B
Experimental: Based on a report that STING, one of the endoplasmic reticulum membrane proteins, induces apoptosis and binds to SURF4 and STAT6, cells were treated with cGAMP, which induces STING. Specifically, cells were collected and lysed with a lysis buffer to extract proteins, which were then separated on a 10% SDS-PAGE gel and transferred to a membrane. pJNK, JNK, BAX, caspase 9, cleaved caspase 9, caspase 3, cleaved caspase 3, PARP, IRE1α, GRP78, PERK, pelF2α, elF2α, ATF4, CHOP, pSTAT6, STAT6, STING, pTBK1, and actin antibodies were each added, allowed to stand at 4° C. for 16 hours, and then a secondary antibody was added and allowed to stand at room temperature for one hour. Afterward, the resulting mixture was allowed to react with an ECL reagent, and the ECL was measured using a chemiluminescence image analyzer.

[2] = system: THP1, HL60, and K562 cells; assay: Annexin V/7AAD apoptosis after paclitaxel treatment; type: cell-based, human; details: paclitaxel 0.5 μM alone, FIG. 5
Experimental: (§1) Apoptosis was measured after treating SURF4 shRNA-transfected THP1, HL60, and K562 cells with paclitaxel. The transfected SURF4 shRNA was the same as in Example 1-(1). Specifically, the concentration of paclitaxel treated in the THP1, HL60, and K562 cells was 0.5 μM, and after transfecting the cells with SURF4 shRNA, the cells were treated with paclitaxel 7 to 10 days later. Afterward, cells of each type were collected and suspended with an Annexin V binding buffer, and then Annexin V-FITC and 7AAD were added to perform measurement using a FACS flow cytometer.

[3] = system: THP1, HL60, and K562 cells; assay: Annexin V/7AAD apoptosis after tunicamycin treatment; type: cell-based, human; details: tunicamycin 10 μM alone, FIG. 7
Experimental: as §1, with “tunicamycin.” for “paclitaxel.”, “tunicamycin” for “paclitaxel”, “10” for “0.5”

[4] = system: pSTAT6 in THP1 and HL60 cells; assay: Western blot of pSTAT6 after IL4 treatment; type: cell-based, human; details: IL4 5 ng/ml for 60 minutes, FIG. 12
Experimental: Based on a report that apoptosis is induced by pSTAT6 through IL4 in leukemia cells, the expression of pSTAT6 was confirmed by treating a leukemia cell line with IL4, which induces STAT6. Specifically, THP1 and HL60 cells transfected with 6 μg of SURF4 shRNA were lysed by treating them with IL4 (5 ng/ml) for 60 minutes, and then Western blot was performed, and the SURF4 expression in the THP1 and HL60 cells transfected with SURF4 shRNA was measured by qRT-PCR. The cells were lysed with a lysis buffer to extract proteins, which were then separated on a 10% SDS-PAGE gel and transferred to a membrane. pJNK, JNK, BAX, caspase 9, cleaved caspase 9, caspase 3, cleaved caspase 3, PARP, IRE1α, GRP78, PERK, pelF2α, elF2α, ATF4, CHOP, pSTAT6, STAT6, STING, pTBK1, and actin antibodies were each added, allowed to stand at 4° C. for 16 hours, and then a secondary antibody was added and allowed to stand at room temperature for one hour. Afterward, the resulting mixture was allowed to react with an ECL reagent, and the ECL was measured using a chemiluminescence image analyzer. In addition, RNA was extracted from the cells using an RNA extraction kit, and cDNA was synthesized from the RNA using a cDNA synthesis kit. A qRT-PCR analysis was performed using the synthesized cDNA, SURF4 primers, and a SYBR green.

`Nc1nc2c(ncn2[C@@H]2O[C@@H]3COP(=O)(O)O[C@H]4[C@@H](O)[C@H](n5cnc6c(N)ncnc65)O[C@@H]4COP(=O)(O)O[C@@H]2[C@@H]3O)c(=O)[nH]1` [cGAMP, cyclic guanosine monophosphate-adenosine monophosphate] was tested, and the pTBK1 expression [1] was “pTBK1 downstream of STING increased”.

In the case of `CC(=O)O[C@H]1C(=O)[C@@]2(C)[C@H]([C@H](OC(=O)c3ccccc3)[C@]3(O)C[C@H](OC(=O)[C@H](O)[C@@H](NC(=O)c4ccccc4)c4ccccc4)C(C)=C1C3(C)C)[C@]1(OC(C)=O)CO[C@@H]1C[C@@H]2O` [paclitaxel], the apoptosis [2] is reported as “induced apoptosis”.

tunicamycin was tested, and the apoptosis [3] was “induced apoptosis”.

B1: IL4: interleukin-4, which induces STAT6 / the expression of pSTAT6 (protein, UniProt P05112 25-153, looked up)
Interleukin-4: HKCDITLQEIIKTLNSLTEQKTLCTELTVTDIFAASKNTTEKETFCRAATVLRQFYSHHEKDTRCLGATAQQFHRHKQLIRFLKRLDRNLWGLAGLNSCPVKEANQSTLENFLERLKTIMREKYSKCSS
With B1 the “pSTAT6 expression (Western blot)” value [4] was “pSTAT6 increased in both the control cells and the cells transfected with SURF4 shRNA”.
